Measurements from US20100144712A1 (priority 2007, published 2010).
Values after ≈ are worked out from the molar mass of the structure shown. Like-named read-outs stand apart in the source and are kept apart here.

Key:
Format in all cases: cell-based
[1] = tested on: Candida albican ATCC 96901; experiment: In vitro antifungal activity (MIC80), Candida albican ATCC 96901; settings: Table 2, ATCC 96901; for MIC80: Candida, ATCC96901, read-out: Minimal inhibitory concentration (MIC80)
Method in brief: (§1)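 Broth microdilution in RPMI 1640 with 2% (v/v) final DMSO, test solutions 0.25 to 256 […]. Inoculum of 1.0×10^3–5.0×10^3 CFU/ml came from colonies grown 2–3 days at 35 °C, and alamarBlue was added. MIC80 is the lowest concentration reducing growth by 80% versus untreated control.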

[2] = tested on: Candida albican ATCC MYA-575; experiment: In vitro antifungal activity (MIC80), Candida albican ATCC MYA-575; settings: Table 2, MYA 575; for MIC80: Candida, read-out: Minimal inhibitory concentration (MIC80)
Method in brief: as §1

[3] = tested on: Candida albican ATCC 62342; experiment: In vitro antifungal activity (MIC80), Candida albican ATCC 62342; settings: Table 2, 62342; for MIC80: Candida, ATCC62342, read-out: Minimal inhibitory concentration (MIC80)
Method in brief: as §1

[4] = tested on: Aspergillus niger ATCC 9142; experiment: In vitro antifungal activity (MIC80), Aspergillus niger ATCC 9142; settings: Table 3, ATCC 9142; for MIC80: Aspergillus niger, ATCC9142, read-out: Minimal inhibitory concentration (MIC80)
Protocol: (§2) In vitro antifungal activities of the inventive antifungal compounds were evaluated using test strains including Candida albican (ATCC 90873, 204276, 62342, 64124, 64550, 96901, MYA-573, MYA-574, MYA-575, MYA-576, MYA-1003) and Aspergillus fumigatus (ATCC 16424). Test samples and positive control samples were prepared by dissolving the inventive compounds and comparative compounds, i.e., amphotericin B, fluconazole and itraconazole, in DMSO, respectively, and each successively diluted with medium to obtain test and positive control solutions having test compound concentrations of 0.125 μg/ml to a maximum concentration not generating turbidity. Minimal inhibitory concentration (MIC80) of each compound was determined as the lowest concentration of the test compounds required to reduce growth by 80% relative to a control strain not treated.
(§3) 3) Preparation of test samples: the inventive compounds and comparative compounds were each diluted with DMSO to obtain 1 to 2 ml of a test sample in a concentration of 100-folds of the determining maximum concentration (256 μg/ml).
(§4) The test samples were each successively diluted with RPMI 1640 to obtain test solutions having concentrations of […] in a 12×75 mm sterilized disposable culture tube. The final concentration of DMSO was adjusted to […] (v/v).
(§5) Candida albican strains were each subcultured in Sabourad Dextrose Agar, YM Agar or Potato Dextrose Agar medium at 35° C. for 2˜3 days. In the case of yeasts, a single colony was taken from prominent colonies and suspended in 0.85% sterile physiological saline solution and the turbidity of the suspension was adjusted to 80˜82% at 530 nm, and then diluted 50-fold with RPMI 1640 medium to 1.0×10^3˜5.0×10^3 CFU/ml. The turbidity of fungi was adjusted to 80˜82% and the suspension was diluted 50-fold to […]. Aspergillus fumigatus strains were subcultured in Malt Extract Agar for 7˜10 days, and a single colony was taken from prominent colonies and suspended in 0.85% sterile physiological saline solution and the suspension was adjusted to 0.108 at 530 nm, and then diluted 1000-fold with RPMI 1640 medium to 0.4×10^2˜5×10^4 CFU/ml. The turbidity of fungi was adjusted to 80˜82% and the suspension was diluted 50-fold to 0.4102˜0.5104 CFU/ml.
(§6) The strain solutions thus obtained were each seeded into a sterilized 96-well microplate, 0.1 ml of each test solution were added thereto, and […] of alamarblue was treated to each well (Biosource, #DAL1100). This procedure was repeated 2 times.
(§7) Minimal inhibitory concentration (MIC80) of each compound was determined as the lowest concentration of the test compounds required to reduce growth by 80% relative to a control strain not treated.
(§8) MIC80 of each of the compounds of which antifungal activities can be confirmed by Table 2 was determined using other test strains, i.e., Aspergillus fumigatus ATCC 16424 and MYA-1163, Aspergillus terreus ATCC 28301, Aspergillus flavus ATCC MYA-1004, and Aspergillus niger ATCC 9142.

[5] = tested on: Aspergillus fumigatus MYA-1163; experiment: In vitro antifungal activity (MIC80), Aspergillus fumigatus MYA-1163; settings: Table 3, MYA-1163; for MIC80: Aspergillus fumigatus, MYA1163, read-out: Minimal inhibitory concentration (MIC80)
Protocol: as §2, §3, §4, §5, §6, §7, §8

[6] = tested on: Candida albican ATCC 64124; experiment: In vitro antifungal activity (MIC80), Candida albican ATCC 64124; settings: Table 2, 64124; for MIC80: Candida, ATCC64124, read-out: Minimal inhibitory concentration (MIC80)
Method in brief: as §1

[7] = tested on: Candida albican ATCC 64550; experiment: In vitro antifungal activity (MIC80), Candida albican ATCC 64550; settings: Table 2, 64550; for MIC80: Candida, ATCC64550, read-out: Minimal inhibitory concentration (MIC80)
Method in brief: as §1

[8] = tested on: Candida albican ATCC MYA-576; experiment: In vitro antifungal activity (MIC80), Candida albican ATCC MYA-576; settings: Table 2, MYA 576; for MIC80: Candida, read-out: Minimal inhibitory concentration (MIC80)
Method in brief: as §1

[9] = tested on: Candida albican ATCC MYA-573; experiment: In vitro antifungal activity (MIC80), Candida albican ATCC MYA-573; settings: Table 2, MYA 573; for MIC80: Candida, read-out: Minimal inhibitory concentration (MIC80)
Method in brief: as §1

[10] = tested on: Aspergillus fumigatus (ATCC 16424); experiment: In vitro antifungal activity (MIC80), Aspergillus fumigatus ATCC 16424; settings: for MIC80: Aspergillus fumigatus, read-out: Minimal inhibitory concentration (MIC80)
Method in brief: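 Broth dilution in RPMI 1640 with 2% (v/v) final DMSO; A. fumigatus inoculum from Malt Extract Agar subculture diluted 1000-fold to 0.4×10^2˜5×10^4 CFU/ml, alamarblue added, repeated 2 times. MIC80 is lowest concentration reducing growth 80% versus untreated control.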

[11] = tested on: Candida albican ATCC MYA-1003; experiment: In vitro antifungal activity (MIC80), Candida albican ATCC MYA-1003; settings: Table 2, MYA 1003; for MIC80: Candida, read-out: Minimal inhibitory concentration (MIC80)
Method in brief: as §1

[12] = tested on: Aspergillus flavus ATCC MYA-1004; experiment: In vitro antifungal activity (MIC80), Aspergillus flavus ATCC MYA-1004; settings: Table 3, MYA-1004; for MIC80: Aspergillus flavus, read-out: Minimal inhibitory concentration (MIC80)
Protocol: as §2, §3, §4, §5, §6, §7, §8

[13] = tested on: Candida albican ATCC MYA-574; experiment: In vitro antifungal activity (MIC80), Candida albican ATCC MYA-574; settings: Table 2, MYA 574; for MIC80: Candida, read-out: Minimal inhibitory concentration (MIC80)
Method in brief: as §1

[14] = tested on: Aspergillus terreus ATCC 28301; experiment: In vitro antifungal activity (MIC80), Aspergillus terreus ATCC 28301; settings: Table 3, ATCC 28301; for MIC80: Aspergillus terreus, ATCC28301, read-out: Minimal inhibitory concentration (MIC80)
Protocol: as §2, §3, §4, §5, §6, §7, §8

[15] = tested on: Candida albican ATCC 90873; experiment: In vitro antifungal activity (MIC80), Candida albican ATCC 90873; settings: Table 2, ATCC 90873; for MIC80: Candida, ATCC90873, read-out: Minimal inhibitory concentration (MIC80)
Method in brief: as §1

Structure (SMILES) | MIC80 [1] | MIC80 [2] | MIC80 [3] | MIC80 [4] | MIC80 [5] | MIC80 [6] | MIC80 [7] | MIC80 [8] | MIC80 [9] | MIC80 ([10]; ATCC16424, Table 2, ATCC 16424) | MIC80 ([10]; ATCC16424, Table 3, ATCC 16424) | MIC80 [11] | MIC80 [12] | MIC80 [13] | MIC80 [14] | MIC80 [15] | also measured
C[C@@H]1[C@H](O)[C@@H](C)/C=C/C=C/C=C/C=C/C=C/C=C/C=C/[C@H](O[C@@H]2O[C@H](C)[C@@H](O)[C@H](N)[C@@H]2O)C[C@@H]2O[C@](O)(C[C@@H](O)C[C@@H](O)[C@H](O)CC[C@@H](O)C[C@@H](O)CC(=O)O[C@H]1C)C[C@H](O)[C@H]2C(=O)O [A, amphotericin B, reference compound] |  |  |  |  |  |  |  |  |  |  |  |  |  |  |  |  | Minimal inhibitory concentration (MIC80) [1]: 0.25 µg/mL (≈ 0.271 µM); Minimal inhibitory concentration (MIC80) [2]: 0.5 µg/mL (≈ 0.541 µM); Minimal inhibitory concentration (MIC80) [3]: 0.5 µg/mL (≈ 0.541 µM); Minimal inhibitory concentration (MIC80) [4]: 0.5 µg/mL (≈ 0.541 µM); Minimal inhibitory concentration (MIC80) [5]: 2 µg/mL (≈ 2.16 µM); Minimal inhibitory concentration (MIC80) [6]: 0.5 µg/mL (≈ 0.541 µM); Minimal inhibitory concentration (MIC80) [7]: 0.5 µg/mL (≈ 0.541 µM); Minimal inhibitory concentration (MIC80) [8]: 0.5 µg/mL (≈ 0.541 µM); Minimal inhibitory concentration (MIC80) [9]: 0.5 µg/mL (≈ 0.541 µM); Minimal inhibitory concentration (MIC80) ([10]; Table 2, ATCC 16424): 1 to 2 µg/mL; Minimal inhibitory concentration (MIC80) ([10]; Table 3, ATCC 16424): 0.5 µg/mL (≈ 0.541 µM); Minimal inhibitory concentration (MIC80) [11]: 0.5 µg/mL (≈ 0.541 µM); Minimal inhibitory concentration (MIC80) [12]: 4 µg/mL (≈ 4.33 µM); Minimal inhibitory concentration (MIC80) [13]: 0.25 µg/mL (≈ 0.271 µM); Minimal inhibitory concentration (MIC80) [14]: 4 µg/mL (≈ 4.33 µM); Minimal inhibitory concentration (MIC80) [15]: 1 to 2 µg/mL
OC(Cn1cncn1)(Cn1cncn1)c1ccc(F)cc1F [F, fluconazole, reference compound] | > 128 µg/mL | 16 µg/mL (≈ 52.2 µM) | 8 µg/mL (≈ 26.1 µM) | > 128 µg/mL | > 128 µg/mL | > 128 µg/mL | 32 µg/mL (≈ 104 µM) | 64 µg/mL (≈ 209 µM) | > 128 µg/mL | > 128 µg/mL | > 128 µg/mL | > 128 µg/mL | > 128 µg/mL | > 128 µg/mL | > 128 µg/mL | 4 µg/mL (≈ 13.1 µM) | 
C[C@@H](N1CCCN(c2ccccn2)CC1)[C@](O)(Cn1cncn1)c1ccc(F)cc1F [Example 38, (2R,3R)-2-(2,4-difluorophenyl)-3-(4-(pyridin-2-yl)-1,4-diazepan-1-yl)-1-(1H-1,2,4-triazol-1-yl)butan-2-ol] | 32 µg/mL (≈ 74.7 µM) | 0.125 µg/mL (≈ 0.292 µM) | 0.25 µg/mL (≈ 0.583 µM) | 1 µg/mL (≈ 2.33 µM) | 0.5 µg/mL (≈ 1.17 µM) | 16 µg/mL (≈ 37.3 µM) | 2 µg/mL (≈ 4.67 µM) | 0.125 µg/mL (≈ 0.292 µM) | 1 µg/mL (≈ 2.33 µM) | 0.125 µg/mL (≈ 0.292 µM) | 0.125 µg/mL (≈ 0.292 µM) | 64 µg/mL (≈ 149 µM) | 0.5 µg/mL (≈ 1.17 µM) | 2 µg/mL (≈ 4.67 µM) | 1 µg/mL (≈ 2.33 µM) | 0.125 µg/mL (≈ 0.292 µM) | 
CCC(C)n1ncn(-c2ccc(N3CCN(c4ccc(OCC5COC(Cn6cncn6)(c6ccc(Cl)cc6Cl)O5)cc4)CC3)cc2)c1=O (stereo not shown) [I, itraconazole, reference compound] | > 128 µg/mL | 0.125 µg/mL (≈ 0.177 µM) | 0.25 µg/mL (≈ 0.354 µM) | 1 µg/mL (≈ 1.42 µM) | 0.5 µg/mL (≈ 0.709 µM) | > 128 µg/mL | 0.5 µg/mL (≈ 0.709 µM) | 0.125 µg/mL (≈ 0.177 µM) | 0.5 µg/mL (≈ 0.709 µM) | 0.25 µg/mL (≈ 0.354 µM) | 0.125 µg/mL (≈ 0.177 µM) | > 128 µg/mL | 0.25 µg/mL (≈ 0.354 µM) | > 128 µg/mL | 0.25 µg/mL (≈ 0.354 µM) | 0.125 µg/mL (≈ 0.177 µM) | 
